Conditions: Liquid; for speed of sound: Frequency=3 MHz, Pulse-echo method; for mass density: Vibrating tube method

CC(C)OC(C)C [diisopropyl ether]
Conditions	mass density, 293.15 K [kg/m3]	mass density, 303.15 K [kg/m3]	mass density, 313.15 K [kg/m3]	mass density, 323.15 K [kg/m3]	mass density, 333.15 K [kg/m3]	speed of sound, 293.15 K [m/s]	speed of sound, 303.15 K [m/s]	speed of sound, 313.15 K [m/s]	speed of sound, 323.15 K [m/s]	speed of sound, 333.15 K [m/s]
100 kPa	723.5	712.9	702.2	691.5	680.6	1019.7	974.32	930.24	887.83	847.29
10000 kPa	734.6	725.2	715.5	706	696.3	–	–	–	–	–
20000 kPa	744.5	735.9	726.9	718	709.3	1161.2	1122.6	1086.8	1051.9	1017.8
30000 kPa	753.3	745.3	736.9	728.5	720.5	–	–	–	–	–
40000 kPa	761.3	753.8	745.7	737.8	730.3	1274.5	1240.4	1207.9	1177.1	1146.8
50000 kPa	768.6	761.5	753.8	746.2	739.1	–	–	–	–	–
60000 kPa	775.4	768.5	761.1	753.9	747.1	1369.3	1337.6	1308.1	1279	1252.4
70000 kPa	781.7	775.1	768.1	761	754.5	–	–	–	–	–
80000 kPa	787.6	781.2	774.3	767.5	761.4	1454.2	1423.4	1396.7	1368.7	1343.2
90000 kPa	793.2	787	780.3	773.7	767.8	–	–	–	–	–
100000 kPa	798.5	792.4	786	779.5	–	1528.7	1501.9	1475	1448.7	–
110000 kPa	803.5	797.6	791.5	785	–	–	–	–	–	–
120000 kPa	808.4	802.5	796.4	790.3	–	–	–	–	–	–
130000 kPa	813	807.3	801.4	795.2	–	–	–	–	–	–
140000 kPa	817.4	811.8	805.9	800	–	–	–	–	–	–

From the NIST ThermoML archive (doi:10.1016/j.fluid.2017.06.024)
